Assay results as given in US20250108007A1, “LIPID COMPOUND AND LIPID NANOPARTICLE COMPOSITION” (SUZHOU ABOGEN BIOSCIENCES CO., LTD., priority 2021, published 2025).

Columns and labels:
[1] = system: female ICR mice; assay: hEPO mRNA lipid nanoparticles in mice, serum EPO by ELISA; assay type: in vivo; details: hEPO mRNA LNP, 0.5 mg/kg, tail vein injection, blood e.g. 6 hours after administration, relative to MC3 LNP positive control
Experimental: Lipid nanoparticles including human erythropoietin (hEPO) mRNA encapsulated by compound in the following table were administered at a dose of 0.5 mg/kg to female ICR mice at 6-8 weeks of age (Xipuer-Bikai, Shanghai) via tail vein injection. Mouse blood samples were taken at specific time points (e.g., 6 hours) after administration. In addition to the above test groups, the lipid nanoparticles including dilinoleylmethyl-4-dimethylaminobutyrate (DLin-MC3-DMA, commonly abbreviated as MC3) encapsulated hEPO mRNA were administered at the same dose to mice of similar age and sex as positive controls.
After the last sampling time point, the mice were euthanized by excess CO2. Serum was separated from whole blood by centrifugation at 5,000 g for 10 minutes at 4° C., snap frozen and stored at −80° C. for analysis. ELSA analysis was performed using a commercially available kit (DEP00, R&D system) according to the manufacturer instructions.
The following table lists the characteristics of the tested lipid nanoparticles, including the expression levels measured from the test group above MC3.

[2] = Encapsulation efficiency of lipid nanoparticles (Quant-it Ribogreen RNA assay); assay type: physicochemical; details: LNP cationic lipid/DSPC/cholesterol/PEG-lipid 50:10:38.5:1.5 with mRNA
Experimental: (§1) Briefly, the cationic lipid, DSPC, cholesterol and PEG-lipid provided by the present invention were dissolved in ethanol at a molar ratio of 50:10:38.5:1.5, and mRNA was diluted in a citrate buffer at 10-50 mM, pH=4. The ethanolic lipid solution and the mRNA aqueous solution were mixed at a volume ratio of 1:3 by a microfluidic device at a flow rate of 9-30 mL/min, so as to prepare LNP at a weight ratio of total lipid to mRNA of about 10:1 to 30:1. PBS for dialysis was used instead of ethanol, thereby removing ethanol. Finally, the lipid nanoparticles were filtered through a 0.2 μm sterile filter.
(§2) The size of the lipid nanoparticles was determined by dynamic light scattering using 173° backscatter detection mode of Malvern Zetasizer Nano ZS (Malvern UK). According to the description of the manufacturer, the encapsulation efficiency of the lipid nanoparticle was determined using a Quant-it Ribogreen RNA quantitative assay kit (Thermo Fisher Scientific, UK).

[3] = Size and polydispersity of lipid nanoparticles by dynamic light scattering; assay type: physicochemical; details: LNP cationic lipid/DSPC/cholesterol/PEG-lipid 50:10:38.5:1.5 with mRNA
Experimental: as §1, §2

Encapsulation efficiency (EE %) [2]	Polydispersity index (PDI) [3]	Size (nm) [3]	Compound	EPO expression relative to MC3 [1]
99.1%	0.257	68.14 nm	CCCCCCCCC(CCCCCCCC)COC(=O)CCCCCN(CCCCCC(=O)OCC(CCCCCCCC)CCCCCCCC)CC1(O)CCN(C(=O)CCCN(C)C)CC1 [Compound 1]	Not detected
98.1%	0.114	80.02 nm	CCCCCCCCC(CCCCCCCC)COC(=O)CCCCCN(CCCCCC(=O)OCC(CCCCCCCC)CCCCCCCC)CC1(O)CCN(C)CC1 [Compound 2]	Not detected
97.3%	0.248	78.45 nm	CCCCCCCCC(CCCCCCCC)COC(=O)CCCCCN(CCCCCC(=O)OCC(CCCCCCCC)CCCCCCCC)CC1(O)CCN(C(=O)CN(C)C)CC1 [Compound 3]	Not detected
98.4%	0.28	55.63 nm	CCCCCCCCC(CCCCCCCC)COC(=O)CCCCCN(CCCCCC(=O)OCC(CCCCCCCC)CCCCCCCC)CC1(O)CCN(C(=O)CCCCN(C)C)CC1 [Compound 4]	Not detected
92.8%	0.034	83.23 nm	CCCCCCCCC(CCCCCCCC)COC(=O)CCCCCN(CCCCCC(=O)OCC(CCCCCCCC)CCCCCCCC)CC1(O)CCN(CCC)CC1 [Compound 6]	A (A: ≥2)
97.6%	0.073	43.78 nm	CCCCCCCCC(CCCCCCCC)COC(=O)CCCCCN(CCCCCC(=O)OCC(CCCCCCCC)CCCCCCCC)CCC(=O)N1CCC(O)(CN(C)C)CC1 [Compound 7]	Not detected
93.7%	0.16	54.23 nm	CCCCCCCCC(CCCCCCCC)COC(=O)CCCCCN1CCC(O)(CN(CCCCCC(=O)OCC(CCCCCCCC)CCCCCCCC)C2CCC2)CC1 [Compound 8]	C (C: ≥0.1 and <1)
97.6%	0.212	35.26 nm	CCCCCCCCC(CCCCCC)COC(=O)CCCCCN(CCCCCC(=O)OCC(CCCCCC)CCCCCCCC)CCCCCC(=O)N1CCC(O)(CN(C)C)CC1 (centres unmarked) [Compound 9]	Not detected
96.7%	0.083	133.3 nm	CCCCCCCCC(CCCCCC)COC(=O)CCCCCN(CCCCCC(=O)OCC(CCCCCC)CCCCCCCC)CCN1CCC(O)(CN(C)CC)CC1 (centres unmarked) [Compound 10]	Not detected
96.8%	0.045	86.19 nm	CCCCCCCCC(CCCCCC)COC(=O)CCCCCN(C)CC1(O)CCN(CCCCCC(=O)OCC(CCCCCC)CCCCCCCC)CC1 (centres unmarked) [Compound 11]	B (B: ≥1 and <2)
81.5%	0.084	109.1 nm	CCCCCCCCC(CCCCCC)COC(=O)CCCCCN1CCC(O)(CN(CCCCCC(=O)OCC(CCCCCC)CCCCCCCC)C2CCCC2)CC1 (centres unmarked) [Compound 12]	C (C: ≥0.1 and <1)
83.9%	0.049	117.7 nm	CCCCCCCCC(CCCCCC)COC(=O)CCCCCN1CCC(O)(CN(CCCCCC(=O)OCC(CCCCCC)CCCCCCCC)C2CCCCC2)CC1 (centres unmarked) [Compound 13]	C (C: ≥0.1 and <1)
97.3%	0.139	97.33 nm	CCCCCCCCC(CCCCCC)COC(=O)CCCCCN(CCCCCC(=O)OCC(CCCCCC)CCCCCCCC)CCN1CCC(O)(CN(C)C)CC1 (centres unmarked) [Compound 14]	Not detected
94.3%	0.06	53.67 nm	CCCCCCCCC(CCCCCC)CC(=O)OCC(CCCCN1CCC(O)(CN(C)C)CC1)COC(=O)CC(CCCCCC)CCCCCCCC (centres unmarked) [Compound 15]	Not detected
